The values that follow come from patent EP2919004A1, “Bioassays on modified TLC/HPTLC plates” (Merck Patent GmbH, priority 2014, dated 2015).

The subject of this assay is hER. The assay can be described thus: HPTLC-pYES (planar yeast estrogen screen) on RP-18 W plate, lac-Z reporter / MUG fluorescence. The class given is cell-based, human. The settings on record: for E2Eq: E2 equivalent calculated as EC50E2/EC50sample, recombinant Saccharomyces cerevisiae BJ3505, dose-response curves after separation on RP 18W plate, n=4; for estrogenic/bioactive effect in pYES: standard solutions or sample zone detected with the pYES, qualitative.

Molecules are shown by their SMILES.

Protocol: HPTLC. Standard and sample solutions (0.1-10 µL) were applied on the HPTLC plate RP-18 W (Merck Millipore, Darmstadt, Germany) as 6.5 mm bands by the Automatic TLC Sampler 4 (ATS4; CAMAG, Muttenz, Switzerland). […] The standard mixture was applied by overspaying of the individual standard solutions, which allowed flexibility for individual mixtures and volumes. For determination of the recovery rate, 0.1 µL P1 sample was sprayed on the plate and oversprayed with 0.1 µL - 2 µL CAPE standard solution. After sample application, the start zones were dried for 1 min using a hair dryer. Development was performed in a Twin Trough Chamber (20 x 10 cm, CAMAG), using n-hexane - toluene - ethyl acetate 4:1.5:1, v/v/v (all from ROTH) up to a migration distance of 70 mm. After development, the plate was dried with cold air using a hair dryer for 2 min to remove the residual solvent. The developed plate was documented at 366 nm illumination using the TLC Visualizer (CAMAG).
Cell cultivation. Saccharomyces cerevisiae BJ3505 (protease-deficient, MATα, PEP4: HIS3, Prb1Δ1.6R, HIS3Δ200, lys2-208, trp1Δ101, ura3-52) generated by McDonnell et al. (61, 62) was used for the pYES-assay. All experimental studies were based on stock of the recombinant estrogen sensitive yeast cells stored in 30% glycerol supplemented growth media, consisting of D-glucose 1 g/L, yeast nitrogen base 6.8 g/L, both Sigma Aldrich, Steinheim, Germany, and amino acid components according to Routledge and Sumpter (50), at -80 °C. From the stock, cells were streaked on an agar plate with growth medium (30°C, two days) to supply colonies for further suspension cultivation. Shaking suspension cultures were inoculated in 20 mL growth medium and cultured at 30 °C at 100 rpm for 18 h. Prior to the assay, cell concentration and viability determination was performed using a hemocytometer and trypan blue (0.4% Sigma Aldrich) staining. For the pYES, the cell number was adjusted to 2.5 x 10^8 cells in 50 mL with 150 µM CuSO4 supplemented growth medium. To remain constant cell quality within the exponential growth phase for further studies, cells were split daily by 1:10 dilution.
HPTLC-pYES. As the HPTLC was developed and cells were prepared, the pYES assay was started. The plate was automatically immersed into the cell suspension using the TLC Immersion Device (CAMAG) with a speed of 3.5 cm/s and an immersion time of 5 s. Thus, the cell suspension was homogeneously transferred onto the plate surface. The wettened plate was incubated in a horizontal position in a plastic box under almost 100% humidified air at 30 °C for 3 h. Thereafter, the plate was dried with cold air using a hair dryer for 2 min. For determination of the resulting ß-galactosidase, the plate was treated with the substrate 4-methylumbelliferyl-ß-D-galactopyranoside (MUG, Roth). ß-galactosidase acts on the substrate MUG to produce 4-methylumbelliferone (MU), detected as blue fluorescence at pH>7. MUG was dissolved in DMSO (20 mg/mL, Roth) and added to the reaction buffer (citric acid 6 g/L, disodium hydrogen phosphate 10 g/L, pH 12, Merck) to a final concentration of 0.5 mg/mL. The dried plate was immersed in the substrate solution according to the previous speed and immersion time. A second incubation period of 60 min at 37°C followed. The substrate reaction was terminated by immersion of the plate into a solution of glycine - NaOH (0.1 M, Roth), pH°12. […] Fluorescence measurement at 366/>400 nm was performed with the mercury lamp using the TLC Scanner 3 (CAMAG). Images were taken at 366 nm illumination using the Reprostar 3 documentation system (CAMAG).
The half maximal effective concentration (EC50) was calculated for comparison of the receptor affinities.

`CC(C)(c1ccc(O)cc1)c1ccc(O)cc1` [BPA, bisphenol A]: the E2Eq was 3.3x10^-4.
For the compound `O=C(/C=C/c1ccc(O)c(O)c1)OCCc1ccccc1` [CAPE, Caffeic acid phenethyl ester], the “estrogenic/bioactive effect in pYES” value was “bioactive EDC zone”.
For `C#C[C@]1(O)CC[C@H]2[C@@H]3CCc4cc(O)ccc4[C@H]3CC[C@@]21C` [EE2, 17α-ethinylestradiol], the E2Eq is on record as 0.3.
The same measure, in the same setting: as for `CCCCCCCCCc1ccc(O)cc1` [NP, 4-n-Nonylphenol], the figure is 2.3x10^-4.
Consider `O=c1cc(-c2ccc(O)c(O)c2)oc2cc(O)cc(O)c12` [luteolin], for which the “estrogenic/bioactive effect in pYES” value is given as “showed an estrogenic/bioactive effect”.
The same measure, in the same setting: to `O=c1c(O)c(-c2ccc(O)c(O)c2)oc2cc(O)cc(O)c12` [quercetin] belongs “showed an estrogenic/bioactive effect”.
